What was measured:
Format in all cases: in vivo, mouse
[1] = system: Lmna^H222P/H222P mice; assay: NAD+ content quantification in heart and liver of treated Lmna H222P/H222P mice; details: NR complemented diet 400 mg/kg/day, from 17 weeks of age for 9 weeks, vs chow-diet
Method: Mice were bred in an accredited animal facility (accreditation number: C-75-13-08). All experiments on mice were approved by the Comité d'éthique en expérimentation animate Charles Darwin No 5. Mice Lmna^H222P/H222P were backcrossed 8 times to 129S2/SvPasOrlRj strain mice to obtain pure genetic background. Male mice used for the studies were maintained under a 12 h light/12 h dark cycle at constant temperature (23° C.) with free access to food and water. Nicotinamide riboside (NR) complementation: Animals at 17 weeks of age were fed for 9 weeks with either a chow diet (A04: Scientific Animal Food & Engineering) or a chow diet complemented with 0.25% of NR (kindly provided by ChromaDex, Inc. California) corresponding to a dose of 400 mg/kg/day for a mouse weighing 25 g eating 4 g of food per day. […]
Fresh mouse tissues were homogenized and processed according to previous report (Sander B J, Oelshlegel F J & Brewer G J (1976) Quantitative analysis of pyridine nucleotides in red blood cells: a single-step extraction procedure. Anal. Biochem. 71: 29-36). The concentration of NAD+ in heart tissue was determined using a spectrophotometric assay at 550 nm based on an alcohol dehydrogenase cycling reaction, in which a Methyl Thiazolyl Tetrazolium (MTT) is reduced to Formazan. […]

[2] = system: Lmna^H222P/H222P mice; assay: qPCR of cardiac remodeling markers Myh7, Nppa, Col1a2 in heart; details: NR diet 9 weeks vs chow-diet
Method: (§1) Mice were bred in an accredited animal facility (accreditation number: C-75-13-08). All experiments on mice were approved by the Comité d'éthique en expérimentation animate Charles Darwin No 5. Mice Lmna^H222P/H222P were backcrossed 8 times to 129S2/SvPasOrlRj strain mice to obtain pure genetic background. Male mice used for the studies were maintained under a 12 h light/12 h dark cycle at constant temperature (23° C.) with free access to food and water. Nicotinamide riboside (NR) complementation: Animals at 17 weeks of age were fed for 9 weeks with either a chow diet (A04: Scientific Animal Food & Engineering) or a chow diet complemented with 0.25% of NR (kindly provided by ChromaDex, Inc. California) corresponding to a dose of 400 mg/kg/day for a mouse weighing 25 g eating 4 g of food per day. Nicotinamide (NAM) treatment: Animals at 17 weeks of age were injected intraperitoneally (IP) every two days (q.a.d.) for 9 weeks with either physiologic serum or physiologic serum added with NAM at 50 mg/ml corresponding to a dose of 500 mg/kg for a mouse weighing 25 g.
Total RNAs were extracted from around 5 mg of mouse heart using RNeasy Mini kit (Qiagen). RNAs integrity were controlled on the Bioanalyzer 2100 (Agilent). […] Relative mRNA transcript levels calculated using the 2^ΔCT method were normalized by comparison to housekeeping mRNA.

[3] = system: SRF^HKO mice; assay: RT-qPCR gene expression in SRF HKO heart
Description: Transgenic mice. All experiments with animals conformed to the Directive 2010/63/EU of the European Parliament and were approved by the ethics committee Charles Darvin #5 (agreement 00369.01). SRF^HKO mice bear the tamoxifen-inducible α-MHC-MerCrMer transgene and the Siffloxed allele (Sf/Sf) as described previously (Parlakian et al. (2005). Temporally controlled onset of dilated cardiomyopathy through disruption of the SRF gene in adult heart. Journal 112, 2930-2939; Tritsch et al. (2013). An SRF/miR-1 axis regulates NCX1 and Annexin A5 protein levels in the normal and failing heart. Journal 98, 372-380). Transgenic mice have been bred for more than 20 generations in C57BL/6N background. The mice were housed in standard animal facility (CEF. Hôpital Pitié Salpétrière, agreement A-75-13-15, 75013 Paris), under a 12-h dark/light cycle. Tamoxifen (Sigma T5648) was administrated by i.p. injection at a dose of 0.7 mg diluted in 100 μl peanut oil at day (D) 0, D1 and D2. (Sf/Sf) littermates injected with tamoxifen at the same time than mutant were used as controls.
Nicotinamide and nicotinamide riboside i.p. administration. Nicotinamide was diluted in saline at 300 mM. Nicotinamide riboside (NR) bromide salt stock solution (1M) was in 10 mM citric acid pH 6.0. For injection 3 volumes of NR stock solution was mixed extemporaneously with 7 volumes of PBS to obtain a 300 mM injectable solution at pH 7.2. Mice were injected daily at a dose of 1 μmole/g body weight.
SRF^HKO and control (Sf/Sf) mice were administered either rodent maintenance SAFE A04 diet containing 3.10% crude fat. 16.10% crude proteins. 26% starch and 1.9% sugar (Scientific Animal Food Engineering, Paris, France) or SAFE # A04 diet supplemented with NR. NR was provided by Chromadex under brand name NIAGEN (Irvine Calif. USA). The soft pellets were manually prepared every 5 days by mixing 1.65 g of NR into 500 g of powdered SAFE A04 diet and 235 ml of water to reach 2.24 mg of NR/g (wet weight). Control diet was prepared in the same way omitting NR. Mice had ad libitum access to food and water. Mice (average body weight 31.3±0.82 g, no difference between groups) consumed an average of 6 g of soft food per day, reaching a daily intake of 450 mg NR/kg. No difference in food intake was observed between SRF^HKO and control mice.
cDNAs were reverse transcribed from RNA (1.5 μg) extracted in TRIzol (Thermofisher) from cell cultures and tissues using the Superscript II Reverse Transcriptase (Life Technologies). Quantitative PCR was carried out on a Light Cycler 480 (Roche Diagnostics) using Fast Start SYBR Green Master (Roche Diagnostics). Quantification of gene expression was calculated as R=2^ΔCt(Ref Cp−target Cp), with Hprt used as a as reference. Primers were designed using the NCBI Primer-BLAST software. Primer sequences are available on request.

[4] = system: Lmna^H222P/H222P mice; assay: Echocardiography and heart size in treated Lmna H222P/H222P mice
Method: as §1
Mouse transthoracic echocardiography was performed using an ACUSON 128XP/10 ultrasound with a 11 Mhz linear probe (Mountain View).MHz transducer applied to the chest wall. Mice were maintained under anesthetized with 0.75% isoflurane anaesthesia (0.75% in O2) and placed on a heating pad (25° C.). Left ventricular (LV) parameters were obtained from M-mode recordings in a modified short axis view. The intra ventricular septum (IVS), LV posterior wall (LVPW), LV diameter (LVD) in diastole and systole, the percentage of fractional shortening (FS) and the heart rate (HR) were measured from the mean of at least three separate cardiac cycles. A “blinded” echocardiographer, unaware of the genotype and the treatment, performed the examinations.

[5] = NR diet 400 mg/kg/day vs chow-diet, echocardiography after 4 and 9 weeks

NC(=O)c1ccc[n+]([C@@H]2O[C@H](CO)[C@@H](O)[C@H]2O)c1 [NR, nicotinamide riboside]
NAD+ content in liver and heart [1]: increase of their NAD+ content in both the liver and the heart | expression of Myh7, Nppa and Col1a2 (markers of cardiac remodeling) [2]: significant lowering | expression level of the NADPH oxidase gene Nox4 ([3]; NR diet, heart of SRF HKO mice): increased | expression level of the Nfel2 gene encoding NRF2 and its target gene metallothionein 2 ([3]; NR diet, heart of SRF HKO mice): increased | expression level of G6pdx ([3]; SRF HKO mice under the NR diet): maintained at higher level than in controls | Srf and Nmrk2 expression levels ([3]; i.p. administration from D8 to D15): not changed | left-ventricular end diastolic diameter (LVDd) [4, 5]: significantly decreased | left-ventricular end systolic diameter (LVDs) [4, 5]: significantly decreased | left-ventricular fractional shortening (FS) ([4]; NR diet 400 mg/kg/day vs chow-diet, starting as early as four weeks of treatment): increased | overall heart size ([4]; NR diet vs chow-diet): reduced

Reference: patent US20190350955A1, “METHODS AND PHARMACEUTICAL COMPOSITIONS FOR THE TREATMENT OF CARDIOMYOPATHIES” (INSERM (Institut National de la Sante et de la Recherche …, priority 2016, published 2019)
